This is an account of results in US10766888B1, “HMOX1 inducers” (Mitobridge Inc., priority 2019, dated 2020).

As usually defined, the Kd is a measure of binding affinity in units of concentration.

One data set addresses T1, Human BACH1 (Homo sapiens, UniProt O14867).
T1 construct: 10×HIS-GP-BACH1(aa179-736)-Thrombin-FLAG; 10xHis (N); GP linker (Gly-Pro) (N); Thrombin cleavage site (C); FLAG (C); host or cells: Sf9 insect cells
T1 sequence (O14867 179-736): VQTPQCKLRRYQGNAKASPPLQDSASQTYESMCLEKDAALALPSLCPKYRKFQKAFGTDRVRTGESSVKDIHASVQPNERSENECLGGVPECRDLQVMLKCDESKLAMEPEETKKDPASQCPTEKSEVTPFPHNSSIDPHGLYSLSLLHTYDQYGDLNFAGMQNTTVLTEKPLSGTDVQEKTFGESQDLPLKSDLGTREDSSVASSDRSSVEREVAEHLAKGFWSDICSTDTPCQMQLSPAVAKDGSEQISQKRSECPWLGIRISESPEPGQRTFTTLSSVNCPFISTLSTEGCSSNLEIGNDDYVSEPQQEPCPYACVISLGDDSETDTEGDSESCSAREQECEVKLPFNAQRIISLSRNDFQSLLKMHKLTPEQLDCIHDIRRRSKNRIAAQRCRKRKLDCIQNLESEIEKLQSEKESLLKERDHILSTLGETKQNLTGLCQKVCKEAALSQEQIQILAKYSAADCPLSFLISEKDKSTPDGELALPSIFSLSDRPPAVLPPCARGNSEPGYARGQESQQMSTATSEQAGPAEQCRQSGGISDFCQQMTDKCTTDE
The data set can be described thus: Microscale thermophoresis (MST) assay / Bach 1 binding assay. The note with it: 10 nM fluorescently labeled BACH1(aa179-736), 25° C. How it is done:
Example 146. Microscale Thermophoresis (MST) Assay/Bach 1 Binding Assay
Outline of Protein Expression/Production
Human BACH1 (construct-ID: 10×HIS-GP-BACH1(aa179-736)-Thrombin-FLAG) was expressed in Sf9 insect cells. Protein purification was performed using affinity chromatography, followed by size-exclusion chromatography. Quality of resulting protein was judged using SDS-PAGE analysis.
The MST technology is based on measurement of protein movement along a temperature gradient. Thereby, fluorescently labeled protein is loaded into capillaries, where an infrared laser heats a small volume. Before and during heating, fluorescent intensity is measured at the site of irradiation and the loss of fluorescence in the IR laser focus is quantified.
Two major factors contribute to change of fluorescence signal. First of all, the so-called TRIC (Temperature Related Intensity Change) effect is caused by the temperature-dependency of fluorophore's quantum yield. Herein, the extent of the temperature dependence depends on the chemical environment, which may be changed by the binding of a ligand (e.g. compound, peptide) to the target. Moreover, Kd value between ligand and target can depend on temperature. Second, thermophoresis, which is defined as movement of fluorescent molecules along temperature gradient, is a major contributor to change of fluorescence. Hereby, protein movement along the gradient depends on hydrodynamic radius, charge and hydration shell. These properties can change upon association of the labeled protein with another species, e.g. compound. Thereby, MST detects the differences in protein movement with increasing ligand concentration: from this, the fraction of ligand bound protein and a Kd value can be determined.
For Kd determination of compounds binding BACH1, the following protocol was applied: 10×HIS-GP-BACH1(aa179-736)-Thrombin-FLAG (expressed and purified at Proteros) was fluorescently labeled via its lysine-residues (2nd gen NHS-NT.647 dye).
Experiments were performed using the experimental device Monolith NT.115 Pico, NanoTemper Technologies, with MST power set to medium and excitation power set to 2% at a reaction temperature of 25° C.
10 nM fluorescently labeled BACH1 was applied to reaction buffer containing 50 mM HEPES pH 8.0, 100 mM NaCl, 5% glycerol, 0.05% Tween20 and 1 mM DTT in a reaction volume of 8 μL using Monolith NT.115 Premium Capillaries. Compounds were applied at a maximal concentration of 103 μM with 15 subsequent factor 2 dilutions.
Background: MST reads how a fluorescent partner responds to local heating, with and without ligand.

Data set [1] is described as follows: PK study: plasma and brain levels in mice. Type of data set: in vivo. The following applies: male C57BL/6 mice, 50 mg/kg oral; for concentration at 0.5 h / concentration at 4 h: mouse; for concentration at 0.5 h: 0.5 hr post dosing; for concentration at 4 h: 4 hr post dosing. The method, then: 9-10 week old male C57BL/6 mice were dosed orally with 50 mg/kg of the test compound formulated in 5% w/v tween 80 and 0.5% methyl cellulose. At 0.5 and 4 h post dosing, whole blood was collected, animals were sacrificed and brain tissues were collected. The blood samples were immediately placed on ice, and centrifuged within 60 min at 4° C. for 3 min at 14000 rpm to obtain plasma. Plasma was transferred by pipette to pre-labeled Eppendorf tubes, stored at −80° C. until analyzed.
Brain tissue samples were collected and rinsed with fresh ice cold 0.9% NaCl solution, dried quickly and thereafter frozen on dry ice/liquid nitrogen and stored at −70±10° C. until analyzed. Homogenization was done using phosphate buffer saline and used for analysis. Bioanalysis was performed using LC-MS/MS (API 4000).

The mark [2] stands for this setting: brain, read-out: Brain (ng/g) 0.5 hr.
Setting [3] is: plasma, read-out: Plasma (ng/ml) 0.5 hr.
Setting [4] is: plasma, read-out: Plasma (ng/ml) 4 hr.

Where two headings read alike, the source gives them in different places.

Regarding `Cn1c(Nc2nc3ccccc3o2)nc2cc(C(=O)NCCOCCO)ccc21` [Example 17, 2-(benzo[d]oxazol-2-ylamino)-N-(2-(2-hydroxyethoxy)ethyl)-1-methyl-1H-benzo[d]imidazole-5-carboxamide], the Kd at Human BACH1 was determined as 250 nM. Besides, the concentration at 0.5 h in data set [1] (setting [2]) came to 188 ± 83 ng/g; in data set [1] (setting [3]) it was 4240 ± 771 ng/mL. Further, in data set [1] (setting [4]), the concentration at 4 h amounted to 72 ± 38 ng/mL.
`COCCNC(=O)c1ccc2c(c1)nc(Nc1nc3ccc(OCCOC)cc3o1)n2C` [Example 56, 2-((6-(2-methoxyethoxy)benzo[d]oxazol-2-yl)amino)-N-(2-methoxyethyl)-1-methyl-1H-benzo[d]imidazole-5-carboxamide]: the dissociation constant Kd on Human BACH1 stood at 250 nM. For the same molecule, in data set [1], the “brain penetration (in words)” value was “good brain penetration”. The concentration at 0.5 h in data set [1] (setting [2]) was determined as 4230 ± 600 ng/g; in data set [1] (setting [3]), 4240 ± 428 ng/mL. The concentration at 4 h in data set [1] (brain, read-out: Brain (ng/g) 4 hr) worked out at 122 ± 153 ng/g; in data set [1] (setting [4]), 281 ± 318 ng/mL.
